According to patent US8481597B2, “Use of (-) (3-trihalomethylphenoxy) (4-halophenyl) acetic acid derivatives for treatment of insulin resistance, type 2 diabetes, hyperlipidemia and hyperuricemia” (Metabolex, Inc., priority 1999, dated 2013):
Values joined by “and” are separate entries in the source; they are usually repeats but may differ in a detail not shown here. Identical values can stand only once. “Also recorded” adds a separate entry of the source.

Key:
[1] = target: T1, cyclooxygenase 1 (COX-1) (Homo sapiens, UniProt P23219); assay: COX-1 inhibition in human whole blood assay, TXB2 production (Example 19); format: cell-based
T1 construct: was conducted using fresh human blood from healthy donors; endogenous in cells; host or cells: heparinized fresh human whole blood, stimulated with calcium ionophore A23187
Protocol: An assay for cyclooxygenase 1 (COX-1) inhibition by the compounds of the present invention was conducted using fresh human blood from healthy donors. […] The enzyme was activated by the commercially available calcium ionophore A23187.
This bioassay is based on the production of thromboxane B2 (TXB2) after COX-1 activation. When activated, COX-1 generates prostaglandin H2 which is then converted to thromboxane A2 (TXA2) by thromboxane synthase and then finally to thromboxane B2 by non-enzymatic […]. In addition, PGE2 levels were measured to exclude inhibition of thromboxane synthase. This assay allows discrimination between COX-1 and thromboxane synthase inhibition.
TXB2 and PGE2 were measured by commercially available immunoassay kits purchased from Assay Designs, Inc. (Ann Arbor, Mich.). All other chemicals were from Sigma except as noted. […] Immediately before use, all compounds were diluted 1:10 in RPMI-1640 medium (Gibco BRL, 11875-093) to make a 10× concentrated stock solution. The 10×RPMI-1640 stock solutions of the calcium ionophore were prepared in an identical manner. […] COX-1 was then activated by adding 25 microliters of the 10× stock solution of 25 micromolar calcium ionophore. The plates were shaken for 10 minutes at room temperature and then incubated at 37° C. for an additional 30 minutes. After these incubation times, the plates were centrifuged at 2,000 g for 5 minutes. Two microliters of plasma were taken from each reaction for the measurement of TXB2 using an enzyme immunoassay kit from Assay Designs, Inc. The PGE2 level in the same reaction was measured using a PGE2 enzyme immunoassay kit from Assay Designs, Inc.
The results of the assay are presented as the percent inhibition of COX-1 activity.

[2] = Pharmacokinetic study of (±) halofenate and (−) halofenate in SD rats (Example 14); format: in vivo; details: single oral (−) halofenate 50 mg/kg, Rats 8, 9, 11 individually, BQL <1.00 μg/mL
Protocol: Male 225-250 g SD rats were purchased from Charles River. […] A catheter was placed in the left carotid artery under sodium pentobarbital (50 mg/kg i.p.) and animals were allowed to recover for 2 days before treatment. […] The gavage volume was 5 ml/kg. Blood samples were collected at 1, 2, 4, 6, 8, 12, 24, 48, 72, 96 and 120 hours post dose. The plasma samples were analyzed for each enantiomeric acid ((−) halofenic acid and (+) halofenic acid) by a chiral specific HPLC assay, since the esters are prodrugs, which are designed to convert to their respective enantiomeric acids in vivo.

[3] = tested on: oxonic acid induced hyperuricemic rats; assay: Plasma uric acid in oxonic acid induced hyperuricemic rats (Example 17); format: in vivo, SD rats; details: oral 50 mg/kg for 3 days, 100 mg/kg on the 4th day; blood 6 hours post gavage on day 4
Source text: Male SD rats, weight 275-300 g were purchased from Charles River. […] To establish a hyperuricemic state, animals were put on a diet containing 2.5% (w/w) of oxonic acid (Sigma Chemical Co, St. Louis, Mo., USA) throughout the experiment. Oxonic acid elevates plasma uric acid by inhibiting uricase. Rats were screened for plasma uric acid levels 3 days after they were placed on the diet, and those that had extreme plasma uric acid levels were excluded. Rats were assigned to one of three groups and the mean uric acid levels were equivalent in each group. […] Oxonic acid was delivered in a liquid formulation containing 0.9% (w/v) methylcellulose. The gavage and injection volumes were 5 ml/kg. Blood samples were taken at 6 hours post oral gavage on day 4. Plasma uric acid levels were determined colorimetrically using the Infinity Uric Acid Reagent (Sigma Chemical Co, St. Louis, Mo., USA).

[4] = tested on: C57BL/6J db/db mice; assay: Prevention of diabetes and alleviation of hypertriglyceridemia in db/db mice (Example 15); format: in vivo; details: 150 mg/kg/day in chow for 9 weeks
Protocol: Blood samples were taken at 8-10 AM once a week for 9 weeks under non-fasting condition. Food intake and body weight were measured every 1-3 days. Plasma glucose and triglyceride concentrations were determined colorimetrically using kits from Sigma Chemical Co (No. 315 and No. 339, St. Louis, Mo., USA). Plasma insulin levels were measured using RIA assay kit purchased from Linco Research (St. Charles, Mo.).

[5] = tested on: Zucker fa/fa rats; assay: Oral glucose challenge in Zucker fatty rats (Example 10); format: in vivo
Protocol: (§1) Prior to treatment, rats were assigned to 6 groups based on body weight. Each treatment group consisted of 8 rats. […] The gavage volume was 10 ml/kg. All rats received an oral glucose challenge (1.9 g/kg) 5.5 hours after the treatment and 4 hours after withdrawal of the food. Blood samples were taken at 0, 15, 30, 60, 90, 120, and 180 minutes following the glucose challenge for plasma glucose measurement. […] On day 5, rats received the intravenous insulin (0.75 U/kg) 5.5 hours after the last dose and 4 hours after withdrawal of the food. Blood samples were taken at 3, 6, 9, 12, 15 and 18 minutes following the insulin injection for plasma glucose measurement.

[6] = tested on: ZDF rats; assay: Plasma glucose in ZDF rats, (−) halofenate vs (+) halofenate (Example 13); format: in vivo; details: 50 mg/kg oral once a day for 3 days
Protocol: Male 8-9 week old ZDF rats were purchased from Genetic Models, Inc. (Indianapolis, Ind.). […] Rats that had 4-hour fasting plasma glucose levels between 200 and 500 mg/dL were used. […] The gavage volume was 5 ml/kg. Blood samples were taken at 5 hours post dose on day 2 and 3.

[7] = tested on: Zucker fa/fa rats; assay: Short insulin tolerance test in Zucker fatty rats (Example 10); format: in vivo; details: 50 mg/kg/day oral for 5 days
Protocol: as §1

[8] = tested on: C57BL/6J ob/ob mice; assay: Time course of glucose-lowering after a single oral dose in diabetic ob/ob mice (Example 8); format: in vivo; details: single oral dose 250 mg/kg; for time course of glucose-lowering, in words: 250 mg/kg
[9] = tested on: C57BL/6J ob/ob mice; assay: Glucose and insulin lowering on daily oral administration in diabetic ob/ob mice (Example 9); format: in vivo
Protocol: The gavage volume was 10 ml/kg.

[10] = daily oral, racemate 250 mg/kg/day, enantiomers 125 and 250 mg/kg/day

T1 sequence (P23219 24-599): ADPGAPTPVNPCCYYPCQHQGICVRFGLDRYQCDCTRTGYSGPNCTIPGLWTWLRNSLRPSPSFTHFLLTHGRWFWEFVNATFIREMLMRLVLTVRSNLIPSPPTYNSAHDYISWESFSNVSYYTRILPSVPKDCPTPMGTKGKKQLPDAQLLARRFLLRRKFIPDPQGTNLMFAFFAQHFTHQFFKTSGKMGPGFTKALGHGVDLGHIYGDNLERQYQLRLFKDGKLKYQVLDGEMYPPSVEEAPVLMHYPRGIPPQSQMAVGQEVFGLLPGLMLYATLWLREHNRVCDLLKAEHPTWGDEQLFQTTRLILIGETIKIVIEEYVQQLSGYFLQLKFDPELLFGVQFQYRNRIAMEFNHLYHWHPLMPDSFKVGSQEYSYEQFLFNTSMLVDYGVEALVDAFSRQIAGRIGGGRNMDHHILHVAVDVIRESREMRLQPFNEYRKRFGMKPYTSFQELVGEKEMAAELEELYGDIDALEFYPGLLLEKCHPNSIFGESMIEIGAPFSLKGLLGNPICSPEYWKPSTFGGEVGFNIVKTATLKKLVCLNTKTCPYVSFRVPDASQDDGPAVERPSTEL

CC(=O)NCCOC(=O)C(Oc1cccc(C(F)(F)F)c1)c1ccc(Cl)cc1 (single isomer, unassigned; (-)) [(−) halofenate, (−) 2-acetamidoethyl 4-chlorophenyl-(3-trifluoromethylphenoxy)acetate]
IC50 ([1]; heparinized fresh human blood, calcium ionophore A23187, TXB2 readout, read-out: IC50, inhibition of the COX-1 enzyme in blood): > 3 mM
inhibition of COX-1, in words ([1]; human whole blood assay): substantially weaker and ineffective inhibitor of the COX-1 enzyme; also recorded: much less effective than the racemate in inhibiting COX-1
Plasma concentration of (+) halofenic acid ([2]; time 0 hour): BQL
Plasma concentration of (−) halofenic acid ([2]; time 0 hour): BQL
Plasma concentration of (+) halofenic acid ([2]; time 1 hour): BQL
Plasma concentration of (+) halofenic acid ([2]; time 2 hours): BQL
Plasma concentration of (+) halofenic acid ([2]; time 4 hours): BQL
Plasma concentration of (+) halofenic acid ([2]; time 6 hours): BQL
Plasma concentration of (+) halofenic acid ([2]; time 8 hours): BQL
Plasma concentration of (+) halofenic acid ([2]; time 72 hours): BQL
Plasma concentration of (+) halofenic acid ([2]; time 96 hours): BQL
Plasma concentration of (+) halofenic acid ([2]; time 120 hours): BQL
plasma uric acid levels, in words [3]: significantly reduced plasma uric acid levels
increase of plasma glucose levels with age, in words [4]: prevented or significantly delayed
plasma insulin concentration, in words [4]: maintained the plasma insulin concentration
plasma triglyceride concentration, in words [4]: alleviated the increase of plasma triglyceride concentration; also recorded: alleviated hyperlipidemia
incremental glucose area under the curve (AUC) relative to vehicle control, in words ([5]; racemate 100 mg/kg, enantiomers 50 and 100 mg/kg): significant reductions in the glucose area; also recorded: Significant changes (p<0.05)
plasma glucose after oral glucose challenge, in words ([5]; single oral dose 100 mg/kg 5.5 hours before challenge): greatest degree of glucose-lowering of all the treated animals
plasma glucose after oral glucose challenge, in words ([5]; single oral dose 5.5 hours before challenge, racemate 100 mg/kg, enantiomers 50 and 100 mg/kg): most effective in lowering the glucose; also recorded: lower glucose levels that persisted at 90-120 minutes
plasma glucose concentrations compared to vehicle-treated animals, in words [6]: significantly reduced plasma glucose concentrations
insulin sensitivity (slope of decline in glucose after i.v. insulin), in words [7]: improved significantly; also recorded: significantly more insulin sensitive
earliest time of plasma glucose reduction / significant activity [8]: 1.5 h
time of peak glucose-lowering activity [8]: 3 h
time course of glucose-lowering, in words [8]: more rapid onset and sustained longer
time course of glucose-lowering, in words ([8]; listed as (−) enantiomer): most rapid onset of action and the longest duration of action; also recorded: more effective and significantly different (p<0.05) from the (+) enantiomer at both the 3 hour and 24 hour time points
plasma glucose at 24 hours ([8]; vehicle 408±16.2): 217 ± 16.4 mg/dL
overnight fasting plasma insulin after 5 days treatment, in words ([9]; 125 mg/kg/day oral, ob/ob mice): Significantly lower plasma insulins
time points after first dose with significantly reduced plasma insulin ([9]; 125 mg/kg/day oral, ob/ob mice): 27 h
overnight fasting plasma insulin after 5 days treatment, in words ([9]; 250 mg/kg/day oral, ob/ob mice): Significantly lower plasma insulins
time points after first dose with significantly reduced plasma glucose ([9]; 250 mg/kg/day oral, ob/ob mice): 3 h
time points after first dose with significantly reduced plasma insulin ([9]; 250 mg/kg/day oral, ob/ob mice): 27 h and 30 h
plasma glucose following an overnight fast after 5 days treatment ([9]; 250 mg/kg/day oral, ob/ob mice, control 185.4±12.3): 127.3 ± 8.0 mg/dL
plasma glucose relative to control animals, in words [9, 10]: Significant decreases in glucose levels
plasma insulin relative to vehicle control, in words [9, 10]: insulins were lower
